# Test results as given in article PMC9852545, “The crystal structure of Vibrio cholerae (6-4) photolyase reveals interactions with cofactors and a DNA-binding region” (The Journal of Biological Chemistry, 2022).
# Molecular target: T1, Vc (6-4) PL (Vibrio cholerae, UniProt Q9KLD7)
# T1 construct: gene VC_A0809
# Assay: X-ray crystallography, […] Å
# Type: binding
# Conditions: 100 K
# T1 sequence (Q9KLD7 1-516 limits assumed): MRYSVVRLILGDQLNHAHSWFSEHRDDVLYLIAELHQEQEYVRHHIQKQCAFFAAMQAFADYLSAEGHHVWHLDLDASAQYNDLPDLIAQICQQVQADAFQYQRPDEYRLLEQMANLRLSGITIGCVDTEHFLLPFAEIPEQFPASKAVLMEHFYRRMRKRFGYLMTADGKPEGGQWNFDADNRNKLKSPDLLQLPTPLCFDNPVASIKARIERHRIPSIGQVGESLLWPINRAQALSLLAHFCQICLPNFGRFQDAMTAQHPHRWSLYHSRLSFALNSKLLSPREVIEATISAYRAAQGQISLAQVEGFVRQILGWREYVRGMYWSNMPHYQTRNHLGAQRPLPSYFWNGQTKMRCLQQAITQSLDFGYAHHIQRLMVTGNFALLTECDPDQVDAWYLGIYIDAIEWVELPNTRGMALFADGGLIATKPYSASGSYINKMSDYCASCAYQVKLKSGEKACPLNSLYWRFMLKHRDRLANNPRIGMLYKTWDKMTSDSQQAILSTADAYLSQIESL
smiles,measurement,setting,value
Cc1nc2c(=O)[nH]c(=O)nc-2n(C[C@H](O)[C@H](O)[C@H](O)CO)c1C [DMRL],"X-ray crystallography, 2.5 Å","photoantenna site in alpha/beta domain, co-purified",there is a very well-defined electron density of the DMRL and interacting amino acid residues
Cc1cc2nc3c(=O)[nH]c(=O)nc-3n(C[C@H](O)[C@H](O)[C@H](O)COP(=O)(O)OP(=O)(O)OC[C@H]3O[C@@H](n4cnc5c(N)ncnc54)[C@H](O)[C@@H]3O)c2cc1C [FAD],"X-ray crystallography, 2.5 Å","catalytic site in alpha-helical domain, co-purified, redox state not stated",FAD has a U-shaped conformation in the α-helical domain
[S]12[Fe]3[S]4[Fe]1[S]1[Fe]2[S]3[Fe]41 [[4Fe-4S] cluster],"X-ray crystallography, 2.5 Å","bound by Cys357, Cys445, Cys448, Cys461, covalent coordination, co-purified aerobically","Cys357, Cys445, Cys448, and Cys461 sulfide atoms make bonds with Fe atoms in the cluster"
